From US20240239781A1, “1H-PYRAZOLE DERIVATIVES AS SIGMA LIGANDS” (ACONDICIONAMIENTO TARRASENSE, priority 2021, published 2024)

Experiments:
human σ2/TMEM97 receptor = target: T1, human σ2/TMEM97 receptor (Homo sapiens, UniProt Q5BJF2); test: Binding assay to human σ2/TMEM97 receptor ([3H]-DTG, transfected HEK-293 membranes); settings: class scale, read-out: Binding σ-2 Ki
T1 construct: expressed in transfected cells; host or cells: HEK-293
Outline: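 Competition against 10 nM [3H]-DTG (Tris-HCl 50 mM, pH 8.0, 25 °C, 120 min) using 15 μg transfected HEK-293 membrane protein, with 10 μM haloperidol defining NSB. Bound radioactivity counted after filtration; results as single-point % inhibition (1 or 10 μM) or five-point Ki.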

human σ1 receptor = target: T2, human σ1 receptor (Homo sapiens, UniProt Q99720); test: Human σ1 receptor radioligand assay ([3H](+)-pentazocine, transfected HEK-293 membranes); settings: class scale, read-out: Binding σ-1 Ki
T2 construct: expressed in transfected cells; host or cells: HEK-293
T2 sequence (Q99720 whole entry): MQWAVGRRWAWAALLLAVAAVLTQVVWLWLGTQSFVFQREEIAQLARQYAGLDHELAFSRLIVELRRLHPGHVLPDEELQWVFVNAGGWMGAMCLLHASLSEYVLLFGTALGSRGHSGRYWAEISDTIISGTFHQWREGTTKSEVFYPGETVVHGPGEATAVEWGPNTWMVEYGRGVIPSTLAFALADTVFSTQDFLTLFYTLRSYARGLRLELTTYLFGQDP
Outline: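 Compounds were tested at a single 1 or 10 μM concentration (% inhibition) or at five concentrations to give Ki. They competed with 5 nM [3H](+)-pentazocine for transfected HEK-293 membranes (7 μg) in 50 mM Tris-HCl pH 8 at 37° C for 120 minutes. Nonspecific binding was set with 10 μM haloperidol, and a filtration scintillation read-out was used.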

T1 sequence (Q5BJF2 whole entry): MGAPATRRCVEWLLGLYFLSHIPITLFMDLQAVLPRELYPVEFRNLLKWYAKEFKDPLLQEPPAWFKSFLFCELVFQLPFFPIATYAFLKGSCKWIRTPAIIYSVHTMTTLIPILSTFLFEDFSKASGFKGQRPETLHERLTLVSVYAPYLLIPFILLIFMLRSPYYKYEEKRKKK

Compound	Ki (human σ2/TMEM97 receptor)	Ki (human σ1 receptor)
CCn1nc(-c2cc(C)on2)c(C(=O)N[C@H]2CC[C@H](NCCC(C)(C)C)CC2)c1Cl [Example 200, 5-Chloro-N-((1r,4r)-4-((3,3-dimethylbutyl)amino)cyclohexyl)-1-ethyl-3-(5-methylisoxazol-3-yl)-1H-pyrazole-4-carboxamide]	< 100 nM	500 to 1000 nM
CCn1nc(-c2cc(C)on2)c(C(=O)N[C@H]2CC[C@@H](NCCC(C)(C)C)CC2)c1Cl [Example 201, 5-Chloro-N-((1s,4s)-4-((3,3-dimethylbutyl)amino)cyclohexyl)-1-ethyl-3-(5-methylisoxazol-3-yl)-1H-pyrazole-4-carboxamide]	100 to 500 nM	100 to 500 nM
CCn1nc(-c2cc(C)on2)c(C(=O)NC2CCCN(CCC(C)(C)C)C2)c1Cl (stereo not drawn) [Example 202, 5-Chloro-N-(1-(3,3-dimethylbutyl)piperidin-3-yl)-1-ethyl-3-(5-methylisoxazol-3-yl)-1H-pyrazole-4-carboxamide]	100 to 500 nM	100 to 500 nM
CCn1nc(-c2cc(C)on2)c(C(=O)Nc2ccc3c(c2)CCN(CCC(C)(C)C)C3)c1Cl [Example 204, 5-Chloro-N-(2-(3,3-dimethylbutyl)-1,2,3,4-tetrahydroisoquinolin-6-yl)-1-ethyl-3-(5-methylisoxazol-3-yl)-1H-pyrazole-4-carboxamide]	< 100 nM	< 100 nM
CCn1nc(-c2cc(C)on2)c(C(=O)NCC2CCCN(CCC(C)(C)C)C2)c1Cl (stereo not drawn) [Example 205, 5-Chloro-N-((1-(3,3-dimethylbutyl)piperidin-3-yl)methyl)-1-ethyl-3-(5-methylisoxazol-3-yl)-1H-pyrazole-4-carboxamide]	< 100 nM	< 100 nM
CCn1nc(-c2cc(C)on2)c(C(=O)NC2CCCCN(CCC(C)(C)C)C2)c1Cl (stereo not drawn) [Example 206, 5-Chloro-N-(1-(3,3-dimethylbutyl)azepan-3-yl)-1-ethyl-3-(5-methylisoxazol-3-yl)-1H-pyrazole-4-carboxamide]	500 to 1000 nM	500 to 1000 nM

More lines, now with the values ahead:

Ki (human σ2/TMEM97 receptor)	Ki (human σ1 receptor)	Compound
< 100 nM	500 to 1000 nM	CCn1nc(-c2ccon2)c(C(=O)N2CCCC3(CN(CCC(C)(C)C)C3)C2)c1Cl [Example 195, (5-Chloro-1-ethyl-3-(isoxazol-3-yl)-1H-pyrazol-4-yl)(2-(3,3-dimethylbutyl)-2,6-diazaspiro[3.5]nonan-6-yl)methanone]
< 100 nM	500 to 1000 nM	CCn1cc(-c2nn(C)c(Cl)c2C(=O)N2CCC3(CCN(CCC(C)(C)C)CC3)CC2)cn1 [Example 196, (5-Chloro-1′-ethyl-1-methyl-1H,1′H-[3,4′-bipyrazol]-4-yl)(9-(3,3-dimethylbutyl)-3,9-diazaspiro[5.5]undecan-3-yl)methanone]
< 100 nM	100 to 500 nM	CCn1nc(-c2ccon2)c(C(=O)NC2CCC3(CC2)CN(CCC(C)(C)C)C3)c1Cl [Example 197, 5-Chloro-N-(2-(3,3-dimethylbutyl)-2-azaspiro[3.5]nonan-7-yl)-1-ethyl-3-(isoxazol-3-yl)-1H-pyrazole-4-carboxamide]
< 100 nM	500 to 1000 nM	CCn1nc(-c2cnn(C(C)C)c2)c(C(=O)N2CCC3(CCN(CCC(C)(C)C)CC3)CC2)c1Cl [Example 198, (5-Chloro-1-ethyl-1′-isopropyl-1H,1′H-[3,4′-bipyrazol]-4-yl)(9-(3,3-dimethylbutyl)-3,9-diazaspiro[5.5]undecan-3-yl)methanone]
< 100 nM	100 to 500 nM	CCn1nc(-c2cccc(C(F)(F)F)n2)c(C(=O)N2CCC3(CCN(CCC(C)(C)C)CC3)CC2)c1Cl [Example 199, (5-Chloro-1-ethyl-3-(6-(trifluoromethyl)pyridin-2-yl)-1H-pyrazol-4-yl)(9-(3,3-dimethylbutyl)-3,9-diazaspiro[5.5]undecan-3-yl)methanone]
< 100 nM	100 to 500 nM	CCn1nc(-c2cc(C)on2)c(C(=O)NCC2CCN(CCC(C)(C)C)CC2)c1Cl [Example 203, 5-Chloro-N-((1-(3,3-dimethylbutyl)piperidin-4-yl)methyl)-1-ethyl-3-(5-methylisoxazol-3-yl)-1H-pyrazole-4-carboxamide]
